Tests used:
Test in all cases: biochemical
Parameters in all cases: KINOMEscan active-site competition binding panel (468 kinase assays), per cent of control at 1000 nM
Conditions in all cases: KINOMEscan per cent of control (binding competition); read-out: Percent Control
[1] = biological target: T1, PFTK1 (Homo sapiens, UniProt O94921)
T1 construct: gene CDK14
Excerpt: (§1) Figure S7 / Percent Control

[2] = biological target: CAMK2A (Homo sapiens, UniProt Q9UQM7)
Excerpt: as §1

[3] = biological target: PIK3CA (Homo sapiens, UniProt P42336)
Excerpt: as §1

[4] = biological target: PAK6 (Homo sapiens, UniProt Q9NQU5)
Excerpt: as §1

[5] = biological target: HIPK4 (Homo sapiens, UniProt Q8NE63)
Excerpt: as §1

[6] = biological target: GRK2 (Homo sapiens, UniProt P25098)
Excerpt: as §1

[7] = biological target: T2, PCTK1 (Homo sapiens, UniProt Q00536)
T2 construct: gene CDK16
Excerpt: as §1

[8] = biological target: CSNK1A1L (Homo sapiens, UniProt Q8N752)
Excerpt: as §1

[9] = biological target: STK16 (Homo sapiens, UniProt O75716)
Excerpt: as §1

[10] = biological target: SNRK (Homo sapiens, UniProt Q9NRH2)
Excerpt: as §1

[11] = biological target: ALK (Homo sapiens, UniProt Q9UM73)
Excerpt: as §1

[12] = biological target: AKT1 (Homo sapiens, UniProt P31749)
Excerpt: as §1

[13] = biological target: CSF1R (Homo sapiens, UniProt P07333)
Excerpt: as §1

[14] = biological target: SBK1 (Homo sapiens, UniProt Q52WX2)
Excerpt: as §1

[15] = biological target: MKNK1 (Homo sapiens, UniProt Q9BUB5)
Excerpt: as §1

[16] = biological target: MAP3K3 (Homo sapiens, UniProt Q99759)
Excerpt: as §1

[17] = biological target: MET (Homo sapiens, UniProt P08581)
Excerpt: as §1

[18] = biological target: VRK2 (Homo sapiens, UniProt Q86Y07)
Excerpt: as §1

[19] = biological target: GSK3B (Homo sapiens, UniProt P49841)
Excerpt: as §1

[20] = biological target: PAK1 (Homo sapiens, UniProt Q13153)
Excerpt: as §1

[21] = biological target: PKN1 (Homo sapiens, UniProt Q16512)
Excerpt: as §1

[22] = biological target: HIPK2 (Homo sapiens, UniProt Q9H2X6)
Excerpt: as §1

MAP3K3, sequence (Q99759 whole entry): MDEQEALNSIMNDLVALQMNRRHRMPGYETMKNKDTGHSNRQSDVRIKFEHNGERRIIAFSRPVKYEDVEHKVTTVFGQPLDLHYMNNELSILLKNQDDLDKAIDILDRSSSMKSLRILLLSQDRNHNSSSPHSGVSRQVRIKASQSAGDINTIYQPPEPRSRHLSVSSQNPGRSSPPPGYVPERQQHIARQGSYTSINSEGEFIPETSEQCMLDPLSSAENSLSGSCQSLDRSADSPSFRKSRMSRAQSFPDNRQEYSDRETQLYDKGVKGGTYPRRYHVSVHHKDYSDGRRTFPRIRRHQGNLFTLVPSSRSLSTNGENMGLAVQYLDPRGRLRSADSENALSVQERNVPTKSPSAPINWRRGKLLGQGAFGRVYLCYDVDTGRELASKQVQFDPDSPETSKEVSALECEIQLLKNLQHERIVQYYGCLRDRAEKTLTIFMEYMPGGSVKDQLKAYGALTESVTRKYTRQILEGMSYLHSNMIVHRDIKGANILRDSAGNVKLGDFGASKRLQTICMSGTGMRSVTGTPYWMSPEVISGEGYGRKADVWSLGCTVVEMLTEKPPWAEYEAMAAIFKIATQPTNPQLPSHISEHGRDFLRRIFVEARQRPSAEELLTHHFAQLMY
SBK1, sequence (Q52WX2 whole entry): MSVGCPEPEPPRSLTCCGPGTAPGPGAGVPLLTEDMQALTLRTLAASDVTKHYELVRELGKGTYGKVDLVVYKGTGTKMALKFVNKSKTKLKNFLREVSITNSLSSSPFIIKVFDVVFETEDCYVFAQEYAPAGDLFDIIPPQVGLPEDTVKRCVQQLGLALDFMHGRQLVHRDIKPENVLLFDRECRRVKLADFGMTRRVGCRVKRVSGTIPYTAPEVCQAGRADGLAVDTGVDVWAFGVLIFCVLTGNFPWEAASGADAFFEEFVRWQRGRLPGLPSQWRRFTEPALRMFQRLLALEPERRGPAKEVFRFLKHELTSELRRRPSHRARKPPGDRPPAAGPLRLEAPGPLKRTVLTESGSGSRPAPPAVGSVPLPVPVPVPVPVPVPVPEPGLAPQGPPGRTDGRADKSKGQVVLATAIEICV
CAMK2A, sequence (Q9UQM7 whole entry): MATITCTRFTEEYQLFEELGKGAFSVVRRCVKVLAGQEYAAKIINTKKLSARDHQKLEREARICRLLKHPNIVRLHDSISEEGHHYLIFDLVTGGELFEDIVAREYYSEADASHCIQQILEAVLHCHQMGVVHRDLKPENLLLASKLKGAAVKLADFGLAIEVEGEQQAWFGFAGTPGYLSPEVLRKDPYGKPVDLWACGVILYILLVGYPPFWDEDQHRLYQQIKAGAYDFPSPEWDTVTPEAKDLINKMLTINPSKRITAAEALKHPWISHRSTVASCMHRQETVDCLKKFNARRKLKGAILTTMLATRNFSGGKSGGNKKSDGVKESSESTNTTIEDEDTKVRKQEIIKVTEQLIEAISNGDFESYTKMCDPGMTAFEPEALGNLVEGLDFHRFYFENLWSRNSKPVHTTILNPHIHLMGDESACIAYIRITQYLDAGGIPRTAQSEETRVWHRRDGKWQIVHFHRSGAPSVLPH
ALK, sequence (Q9UM73 whole entry): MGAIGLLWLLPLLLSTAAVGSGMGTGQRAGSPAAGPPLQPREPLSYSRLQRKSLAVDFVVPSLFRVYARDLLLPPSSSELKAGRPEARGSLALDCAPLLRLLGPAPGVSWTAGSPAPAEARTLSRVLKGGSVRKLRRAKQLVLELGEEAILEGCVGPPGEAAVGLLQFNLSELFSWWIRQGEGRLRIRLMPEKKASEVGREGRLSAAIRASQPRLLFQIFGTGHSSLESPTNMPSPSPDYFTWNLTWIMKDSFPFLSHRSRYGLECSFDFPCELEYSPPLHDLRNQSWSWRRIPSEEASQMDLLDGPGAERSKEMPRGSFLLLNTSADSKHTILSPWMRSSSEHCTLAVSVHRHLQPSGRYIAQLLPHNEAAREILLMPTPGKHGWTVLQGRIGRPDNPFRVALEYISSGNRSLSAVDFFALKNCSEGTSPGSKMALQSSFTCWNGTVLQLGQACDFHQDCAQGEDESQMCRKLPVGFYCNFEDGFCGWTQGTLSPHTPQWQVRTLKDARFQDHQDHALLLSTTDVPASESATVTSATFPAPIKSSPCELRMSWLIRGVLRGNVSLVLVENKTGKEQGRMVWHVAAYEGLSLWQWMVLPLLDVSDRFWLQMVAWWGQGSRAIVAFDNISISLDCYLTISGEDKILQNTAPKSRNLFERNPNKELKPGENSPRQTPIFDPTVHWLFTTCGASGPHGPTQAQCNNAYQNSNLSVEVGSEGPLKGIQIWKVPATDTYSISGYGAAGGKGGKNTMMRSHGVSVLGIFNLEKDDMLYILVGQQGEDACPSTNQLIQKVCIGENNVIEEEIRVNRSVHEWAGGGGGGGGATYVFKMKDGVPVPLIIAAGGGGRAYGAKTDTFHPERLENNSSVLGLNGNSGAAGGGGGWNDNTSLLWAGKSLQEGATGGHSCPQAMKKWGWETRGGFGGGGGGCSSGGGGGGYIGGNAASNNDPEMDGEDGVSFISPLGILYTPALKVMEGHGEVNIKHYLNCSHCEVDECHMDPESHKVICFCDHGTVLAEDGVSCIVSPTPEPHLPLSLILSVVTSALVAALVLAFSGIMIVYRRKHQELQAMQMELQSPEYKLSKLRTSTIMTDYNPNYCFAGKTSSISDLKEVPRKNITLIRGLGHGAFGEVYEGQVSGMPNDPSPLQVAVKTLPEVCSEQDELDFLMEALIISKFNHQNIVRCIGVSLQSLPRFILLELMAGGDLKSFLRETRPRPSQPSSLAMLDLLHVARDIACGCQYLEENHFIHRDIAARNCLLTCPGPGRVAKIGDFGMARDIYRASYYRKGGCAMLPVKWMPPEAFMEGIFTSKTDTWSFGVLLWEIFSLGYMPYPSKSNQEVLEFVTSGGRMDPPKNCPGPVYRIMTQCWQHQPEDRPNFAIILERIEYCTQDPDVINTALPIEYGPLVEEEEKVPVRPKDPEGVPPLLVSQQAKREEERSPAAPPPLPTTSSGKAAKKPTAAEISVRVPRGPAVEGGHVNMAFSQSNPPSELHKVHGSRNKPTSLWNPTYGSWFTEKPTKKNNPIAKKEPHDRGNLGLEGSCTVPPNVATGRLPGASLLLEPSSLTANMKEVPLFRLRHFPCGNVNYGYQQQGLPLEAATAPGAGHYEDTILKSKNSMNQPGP
CSNK1A1L, sequence (Q8N752 whole entry): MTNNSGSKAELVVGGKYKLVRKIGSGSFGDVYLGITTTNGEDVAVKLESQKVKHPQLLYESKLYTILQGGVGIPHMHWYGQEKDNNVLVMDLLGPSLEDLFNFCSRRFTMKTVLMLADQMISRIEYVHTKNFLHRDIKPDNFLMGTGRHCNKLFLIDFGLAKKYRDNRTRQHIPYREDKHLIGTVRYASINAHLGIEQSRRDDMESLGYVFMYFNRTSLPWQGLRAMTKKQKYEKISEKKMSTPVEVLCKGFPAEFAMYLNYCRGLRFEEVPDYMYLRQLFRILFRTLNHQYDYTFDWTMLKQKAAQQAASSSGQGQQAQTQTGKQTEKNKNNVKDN
T2 sequence (Q00536 whole entry): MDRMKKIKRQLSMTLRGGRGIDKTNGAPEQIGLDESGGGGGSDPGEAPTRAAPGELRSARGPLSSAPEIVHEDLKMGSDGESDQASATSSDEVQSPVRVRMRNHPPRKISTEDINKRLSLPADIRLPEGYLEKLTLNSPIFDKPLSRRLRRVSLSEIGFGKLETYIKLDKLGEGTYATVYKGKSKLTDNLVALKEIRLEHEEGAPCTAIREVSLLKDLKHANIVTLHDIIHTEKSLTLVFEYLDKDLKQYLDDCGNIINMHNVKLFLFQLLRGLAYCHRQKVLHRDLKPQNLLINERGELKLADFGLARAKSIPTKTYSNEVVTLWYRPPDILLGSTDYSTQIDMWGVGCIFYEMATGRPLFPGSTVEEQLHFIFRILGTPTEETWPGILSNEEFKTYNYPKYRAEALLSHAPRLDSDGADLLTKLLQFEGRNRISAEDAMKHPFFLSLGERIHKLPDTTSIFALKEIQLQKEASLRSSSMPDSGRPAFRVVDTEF
PAK1, sequence (Q13153 whole entry): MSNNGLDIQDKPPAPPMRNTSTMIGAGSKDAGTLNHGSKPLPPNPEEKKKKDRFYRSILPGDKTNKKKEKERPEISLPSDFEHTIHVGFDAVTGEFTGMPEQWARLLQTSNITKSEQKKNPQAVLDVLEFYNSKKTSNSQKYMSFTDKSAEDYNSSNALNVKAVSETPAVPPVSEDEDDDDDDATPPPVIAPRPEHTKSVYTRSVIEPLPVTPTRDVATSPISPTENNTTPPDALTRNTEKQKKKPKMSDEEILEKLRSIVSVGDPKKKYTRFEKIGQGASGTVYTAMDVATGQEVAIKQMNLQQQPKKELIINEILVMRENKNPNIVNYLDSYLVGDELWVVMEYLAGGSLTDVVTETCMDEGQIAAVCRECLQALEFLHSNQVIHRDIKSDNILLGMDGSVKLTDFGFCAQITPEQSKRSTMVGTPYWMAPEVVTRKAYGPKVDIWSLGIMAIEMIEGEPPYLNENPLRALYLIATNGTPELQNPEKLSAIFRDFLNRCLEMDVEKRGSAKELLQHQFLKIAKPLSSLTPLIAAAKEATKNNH
T1 sequence (O94921 whole entry): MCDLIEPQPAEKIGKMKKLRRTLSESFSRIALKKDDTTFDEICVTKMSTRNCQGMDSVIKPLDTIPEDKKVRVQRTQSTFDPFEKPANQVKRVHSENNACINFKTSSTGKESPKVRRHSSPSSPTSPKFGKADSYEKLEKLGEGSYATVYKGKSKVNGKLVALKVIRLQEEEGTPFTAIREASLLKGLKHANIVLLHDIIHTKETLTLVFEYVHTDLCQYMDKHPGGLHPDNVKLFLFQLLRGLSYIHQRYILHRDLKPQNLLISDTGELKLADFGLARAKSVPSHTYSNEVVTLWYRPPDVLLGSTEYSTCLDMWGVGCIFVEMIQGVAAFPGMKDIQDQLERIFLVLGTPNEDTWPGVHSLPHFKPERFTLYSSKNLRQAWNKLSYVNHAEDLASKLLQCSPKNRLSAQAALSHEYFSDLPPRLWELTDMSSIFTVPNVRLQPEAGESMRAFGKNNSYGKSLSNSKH

With `Cn1c(=O)[nH]c2ccc(-c3cccc(C(=O)NC4CCn5ccnc5C4)c3)cc21` (stereo not shown) [Z36-MP5] the remaining binding at 1 µM [1] was 98%, the remaining binding at 1 µM [2] was 87% and the remaining binding at 1 µM [3] was 97%. The remaining binding at 1 µM [4] was 91%, the remaining binding at 1 µM [5] was 91% and the remaining binding at 1 µM [6] was 83%. It also gave a remaining binding at 1 µM [7] of 82%, a remaining binding at 1 µM [8] of 99% and a remaining binding at 1 µM [9] of 31%. It also gave a remaining binding at 1 µM [10] of 78%, a remaining binding at 1 µM [11] of 51% and a remaining binding at 1 µM [12] of 95%. The remaining binding at 1 µM [13] was 91%, the remaining binding at 1 µM [14] was 74% and the remaining binding at 1 µM [15] was 100%. It also gave a remaining binding at 1 µM [16] of 55%, a remaining binding at 1 µM [17] of 96% and a remaining binding at 1 µM [18] of 72%. For the same compound, the remaining binding at 1 µM [19] was 81%, the remaining binding at 1 µM [20] was 87% and the remaining binding at 1 µM [21] was 99%. For the same compound, the remaining binding at 1 µM [22] was 64%.
